Reference: ChEMBL document CHEMBL1126574, “Non-peptide angiotensin II receptor antagonists. 2. Design, synthesis, and biological activity of N-substituted (phenylamino)phenylacetic acids and acyl sulfonamides” (J Med Chem, 1993)

biological target: T1, Type-2 angiotensin II receptor (Rattus norvegicus, UniProt P35351); experiment: In vitro antagonist activity against angiotensin II type 2 (AT2) receptor in rat midbrain using [125I]- Sar, Ile AII.; type: functional
T1 sequence (P35351 whole entry): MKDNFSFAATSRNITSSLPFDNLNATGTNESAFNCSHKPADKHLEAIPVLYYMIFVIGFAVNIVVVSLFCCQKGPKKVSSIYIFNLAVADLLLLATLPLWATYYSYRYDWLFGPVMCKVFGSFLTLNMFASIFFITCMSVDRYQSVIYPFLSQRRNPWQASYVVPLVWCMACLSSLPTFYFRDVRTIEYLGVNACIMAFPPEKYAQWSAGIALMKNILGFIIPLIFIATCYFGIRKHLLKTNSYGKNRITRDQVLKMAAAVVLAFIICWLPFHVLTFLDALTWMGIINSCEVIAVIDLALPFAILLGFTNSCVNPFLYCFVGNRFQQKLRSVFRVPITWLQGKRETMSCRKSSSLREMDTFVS

| Structure (SMILES) | IC50 |
| --- | --- |
| CCc1nc2c(C)cc(C)nc2n1Cc1ccc(N(CC)C(C(=O)O)c2cc(C(F)(F)F)cc(C(F)(F)F)c2)cc1 (stereo not given) | 12000 nM |
| CCc1nc2c(C)cc(C)nc2n1Cc1ccc(N(C)C(C(=O)O)c2cc(F)ccc2F)cc1 (stereo not given) | > 10000 nM |
| CCc1nc2c(C)cc(C)nc2n1Cc1ccc(NC(C(=O)O)c2ccccc2)c(C)c1 (stereo not given) | 11000 nM |
| CCc1nc2c(C)cc(C)nc2n1Cc1ccc(N(CC(C)C)C(C(=O)O)c2ccccc2)cc1 (stereo not given) | > 300 nM |
| CCc1nc2c(C)cc(C)nc2n1Cc1ccc(N(CC)C(C(=O)O)c2ccccc2Cl)cc1 (stereo not given) | > 10000 nM |
| C=CCN(c1ccc(Cn2c(CC)nc3c(C)cc(C)nc32)cc1C)C(C(=O)O)c1ccccc1C (stereo not given) | 11000 nM |
| CCc1nc2c(C)cc(C)nc2n1Cc1ccc(N(CC)C(C(=O)O)c2cc(F)ccc2F)cc1 (stereo not given) | > 10000 nM |
| CCc1nc2c(C)cc(C)nc2n1Cc1ccc(NC(C(=O)O)c2ccccc2)cc1 (stereo not given) | 21000 nM |
| CCc1nc2c(C)cc(C)nc2n1Cc1ccc(N(C)C(c2ccccc2)c2nnn[nH]2)cc1 (stereo not given) | > 30000 nM |
| C=CCN(c1ccc(Cn2c(CC)nc3c(C)cc(C)nc32)cc1)C(C(=O)O)c1cc(F)ccc1F (stereo not given) | 8800 nM |
| CCc1nc2c(C)cc(C)nc2n1Cc1ccc(NC(C(=O)O)c2ccccc2C)c(C)c1 (stereo not given) | 19000 nM |
| CCc1nc2c(C)cc(C)nc2n1Cc1ccc(N(C)C(C(=O)O)c2ccccc2)c(C)c1 (stereo not given) | 11000 nM |
| CCc1nc2c(C)cc(C)nc2n1Cc1ccc(-c2ccccc2-c2nnn[nH]2)cc1 [L-158809] | > 10000 nM |

Further compounds by falling IC50, results first:

| IC50 | Structure (SMILES) |
| --- | --- |
| 8600 nM | CCc1nc2c(C)cc(C)nc2n1Cc1ccc(N(CC)C(C(=O)O)c2ccccc2)c(C)c1 (stereo not given) |
| 6000 nM | CCc1nc2c(C)cc(C)nc2n1Cc1ccc(NC(C(=O)O)c2cc(C(F)(F)F)cc(C(F)(F)F)c2)cc1 (stereo not given) |
| 4800 nM | CCCN(c1ccc(Cn2c(CC)nc3c(C)cc(C)nc32)cc1C)C(C(=O)O)c1ccccc1 (stereo not given) |
| 4300 nM | C=CCN(c1ccc(Cn2c(CC)nc3c(C)cc(C)nc32)cc1C)C(C(=O)O)c1ccccc1 (stereo not given) |
| 3400 nM | CCc1nc2c(C)cc(C)nc2n1Cc1ccc(N(C)C(C(=O)O)c2ccccc2)cc1 (stereo not given) |
| 2900 nM | C=CCN(c1ccc(Cn2c(CC)nc3c(C)cc(C)nc32)cc1)C(C(=O)NS(=O)(=O)c1ccccc1)c1ccccc1 (stereo not given) |
| 2200 nM | CCc1nc2c(C)cc(C)nc2n1Cc1ccc(N(CC2CC2)C(C(=O)O)c2ccccc2)cc1 (stereo not given) |
| 2100 nM | CCc1nc2c(C)cc(C)nc2n1Cc1ccc(N(CC)C(C(=O)O)c2cccc(C)c2)cc1 (stereo not given) |
| 1600 nM | CCc1nc2c(C)cc(C)nc2n1Cc1ccc(N(C(C)CC)C(C(=O)O)c2ccccc2)cc1 (stereo not given) |
| 740 nM | CCc1nc2c(C)cc(C)nc2n1Cc1ccc(N(CC)C(C(=O)O)c2ccccc2)cc1 (stereo not given) |
| 660 nM | CCCCN(c1ccc(Cn2c(CC)nc3c(C)cc(C)nc32)cc1)C(C(=O)O)c1ccccc1 (stereo not given) |
| 560 nM | CCCN(c1ccc(Cn2c(CC)nc3c(C)cc(C)nc32)cc1)C(C(=O)O)c1ccccc1 (stereo not given) |
| 490 nM | C=CCN(c1ccc(Cn2c(CC)nc3c(C)cc(C)nc32)cc1)C(C(=O)O)c1ccccc1 (stereo not given) |
| 420 nM | CCCN(c1ccc(Cn2c(CC)nc3c(C)cc(C)nc32)cc1)C(C(=O)NS(=O)(=O)c1ccccc1)c1ccccc1 (stereo not given) |
| 200 nM | CCc1nc2c(C)cc(C)nc2n1Cc1ccc(N(CC)C(C(=O)NS(=O)(=O)c2ccccc2)c2ccccc2)cc1 (stereo not given) |

biological target: T2, Type-1 angiotensin II receptor (Oryctolagus cuniculus, UniProt P34976); experiment: In vitro antagonist activity against angiotensin II receptor type 1 in rabbit aorta using [125I]-Sar, Ile AII.; type: functional, tissue-based
T2 sequence (P34976 whole entry): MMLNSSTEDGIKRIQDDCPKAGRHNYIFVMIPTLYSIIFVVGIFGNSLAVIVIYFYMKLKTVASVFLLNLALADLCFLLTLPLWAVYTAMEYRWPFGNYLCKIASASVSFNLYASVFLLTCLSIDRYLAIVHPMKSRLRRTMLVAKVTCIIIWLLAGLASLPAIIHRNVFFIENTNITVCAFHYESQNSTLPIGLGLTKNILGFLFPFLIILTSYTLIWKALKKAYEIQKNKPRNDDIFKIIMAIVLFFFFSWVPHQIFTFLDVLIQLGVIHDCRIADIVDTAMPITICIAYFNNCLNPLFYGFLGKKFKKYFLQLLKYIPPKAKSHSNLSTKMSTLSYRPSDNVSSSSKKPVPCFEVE

| Structure (SMILES) | IC50 |
| --- | --- |
| CCc1nc2c(C)cc(C)nc2n1Cc1ccc(N(CC)C(C(=O)O)c2cc(C(F)(F)F)cc(C(F)(F)F)c2)cc1 (stereo not given) | 1900 nM |
| CCc1nc2c(C)cc(C)nc2n1Cc1ccc(N(C)C(C(=O)O)c2cc(F)ccc2F)cc1 (stereo not given) | > 100 nM |
| CCc1nc2c(C)cc(C)nc2n1Cc1ccc(NC(C(=O)O)c2ccccc2)c(C)c1 (stereo not given) | 100 nM |
| CCc1nc2c(C)cc(C)nc2n1Cc1ccc(N(CC(C)C)C(C(=O)O)c2ccccc2)cc1 (stereo not given) | 22 nM |
| CCc1nc2c(C)cc(C)nc2n1Cc1ccc(N(CC)C(C(=O)O)c2ccccc2Cl)cc1 (stereo not given) | 380 nM |
| C=CCN(c1ccc(Cn2c(CC)nc3c(C)cc(C)nc32)cc1C)C(C(=O)O)c1ccccc1C (stereo not given) | 82 nM |
| CCc1nc2c(C)cc(C)nc2n1Cc1ccc(N(CC)C(C(=O)O)c2cc(F)ccc2F)cc1 (stereo not given) | 88 nM |
| CCc1nc2c(C)cc(C)nc2n1Cc1ccc(NC(C(=O)O)c2ccccc2)cc1 (stereo not given) | 200 nM |
| CCc1nc2c(C)cc(C)nc2n1Cc1ccc(N(C)C(c2ccccc2)c2nnn[nH]2)cc1 (stereo not given) | 15 nM |
| C=CCN(c1ccc(Cn2c(CC)nc3c(C)cc(C)nc32)cc1)C(C(=O)O)c1cc(F)ccc1F (stereo not given) | 200 nM |
| CCc1nc2c(C)cc(C)nc2n1Cc1ccc(NC(C(=O)O)c2ccccc2C)c(C)c1 (stereo not given) | 28 nM |
| CCc1nc2c(C)cc(C)nc2n1Cc1ccc(N(C)C(C(=O)O)c2ccccc2)c(C)c1 (stereo not given) | 70 nM |

The next lines start with the values.

| IC50 | Structure (SMILES) |
| --- | --- |
| 10 nM | CCc1nc2c(C)cc(C)nc2n1Cc1ccc(N(CC)C(C(=O)O)c2ccccc2)c(C)c1 (stereo not given) |
| 860 nM | CCc1nc2c(C)cc(C)nc2n1Cc1ccc(NC(C(=O)O)c2cc(C(F)(F)F)cc(C(F)(F)F)c2)cc1 (stereo not given) |
| 12 nM | CCCN(c1ccc(Cn2c(CC)nc3c(C)cc(C)nc32)cc1C)C(C(=O)O)c1ccccc1 (stereo not given) |
| 34 nM | C=CCN(c1ccc(Cn2c(CC)nc3c(C)cc(C)nc32)cc1C)C(C(=O)O)c1ccccc1 (stereo not given) |
| 8.2 nM | CCc1nc2c(C)cc(C)nc2n1Cc1ccc(N(C)C(C(=O)O)c2ccccc2)cc1 (stereo not given) |
| 1 nM | C=CCN(c1ccc(Cn2c(CC)nc3c(C)cc(C)nc32)cc1)C(C(=O)NS(=O)(=O)c1ccccc1)c1ccccc1 (stereo not given) |
| 31 nM | CCc1nc2c(C)cc(C)nc2n1Cc1ccc(N(CC2CC2)C(C(=O)O)c2ccccc2)cc1 (stereo not given) |
| 66 nM | CCc1nc2c(C)cc(C)nc2n1Cc1ccc(N(CC)C(C(=O)O)c2cccc(C)c2)cc1 (stereo not given) |
| 80 nM | CCc1nc2c(C)cc(C)nc2n1Cc1ccc(N(C(C)CC)C(C(=O)O)c2ccccc2)cc1 (stereo not given) |
| 4 nM | CCc1nc2c(C)cc(C)nc2n1Cc1ccc(N(CC)C(C(=O)O)c2ccccc2)cc1 (stereo not given) |
| 94 nM | CCCCN(c1ccc(Cn2c(CC)nc3c(C)cc(C)nc32)cc1)C(C(=O)O)c1ccccc1 (stereo not given) |
| 5.3 nM | CCCN(c1ccc(Cn2c(CC)nc3c(C)cc(C)nc32)cc1)C(C(=O)O)c1ccccc1 (stereo not given) |
| 5.3 nM | C=CCN(c1ccc(Cn2c(CC)nc3c(C)cc(C)nc32)cc1)C(C(=O)O)c1ccccc1 (stereo not given) |
| 0.8 nM | CCCN(c1ccc(Cn2c(CC)nc3c(C)cc(C)nc32)cc1)C(C(=O)NS(=O)(=O)c1ccccc1)c1ccccc1 (stereo not given) |
| 0.9 nM | CCc1nc2c(C)cc(C)nc2n1Cc1ccc(N(CC)C(C(=O)NS(=O)(=O)c2ccccc2)c2ccccc2)cc1 (stereo not given) |
